{
  "source": "patent US20110021631A1",
  "about": "“Method of preparing stabilized pharmaceutical compositions comprising active ingredients susceptible to conversion to alternate polymorph forms” (LEK PHARMACEUTICALS D.D., priority 2004, published 2011)",
  "key": {"[1]": {"settings": "forms as named in WO 01/43723; cited from earlier work"}, "[2]": {"assay": "Polymorph analysis by X-ray powder diffraction (XRPD) after wet granulation / mixing of pravastatin sodium form LEK", "assay_type": "physicochemical", "procedure": "References to 2Θ values are to those measured using CuKα radiation. Samples are measured on apparatus Siemens D-5000 by reflex technique at two conditions: • a. Samples with high amount of pravastatin sodium (more than 30%): CuKα radiation, range from 2° to 37° 2Θ, step 0.04° 2Θ, integration time 1 second, slots V20 and 0.6 mm. • b. Samples with low amount of pravastatin sodium (less than 30%): CuKα radiation, range from 3° to 12° 2Θ, step 0.04° 2Θ, integration time 15 second, slots V20 and 0.6 mm."}},
  "note": "Entries after “also recorded” stand apart in the source; their conditions may differ.",
  "data": [
    {"smiles": "CC[C@H](C)C(=O)O[C@H]1C[C@H](O)C=C2C=C[C@H](C)[C@H](CC[C@@H](O)C[C@@H](O)CC(=O)O)[C@H]21", "note": "[pravastatin sodium form D, pravastatin sodium]", "values": [
      {"measurement": "polymorph conversion by treating with alcohol", "setting": "[1]", "value": "convert to forms A, H, H1, I, J, K"}
    ]},
    {"smiles": "CC[C@H](C)C(=O)O[C@H]1C[C@H](O)C=C2C=C[C@H](C)[C@H](CC[C@@H](O)C[C@@H](O)CC(=O)O)[C@H]21", "note": "[pravastatin sodium]", "values": [
      {"measurement": "conversion on granulation with granulating liquid comprising a binder (PVP)", "setting": "[2]; PVP in ethanol, in some experiments", "value": "partial conversion"},
      {"measurement": "conversion to another polymorph form on granulation with alcohol alone", "setting": "[2]; alcohol (absolute ethanol or aqueous ethanol) as granulating liquid, absence of other ingredients", "value": "does not convert to any other polymorph form; also recorded: does not cause the precrystallization"},
      {"measurement": "precrystallization of dry mixture", "setting": "[2]; dry mixture of pravastatin sodium and microcrystalline cellulose, 2 hours at 60° C.", "value": "does not cause any precrystallization"},
      {"measurement": "stability of Lek form in wet granulation", "setting": "[2]; mass ratio pravastatin sodium to microcrystalline cellulose higher or equal to 1:1 and pravastatin sodium to ethanol higher or equal to 1:1, preferably 1:0.5", "value": "stable"},
      {"measurement": "precrystallization in wet granulation", "setting": "[2]; pravastatin sodium:microcrystalline cellulose = 1:0.5, pravastatin sodium and ethanol 1:0.4", "value": "no precrystallization occurs"},
      {"measurement": "polymorph form in the presence of a high amount of microcrystalline cellulose and granulating liquid", "setting": "[2]; wet granulation with ethanol", "value": "precrystallizes to form D"}
    ]}
  ]
}
